Experiment [1] addresses T1, γ-CaCAmut (Caloramator australicus, UniProt G0V3M6, V46E/T67E/G68E/Y159N, form not given).
T1 construct: gene CAAU_0066
The conditions noted are these: pNPA as substrate, 25°C; 1 mM inhibitor.

The target in experiment [2] is T1, γ-CaCAmut. Kind of experiment: spectrophotometric p-nitrophenol release at […] nm. In kind it is biochemical. To be noted: 0.1 M KH2PO4, pH 8.0, 25°C; 0.4-3.5 mM p-NPA; esterase activity.

Each structure is given as a SMILES string.

T1 sequence (G0V3M6 1-167 G68E/T67E/V46E/Y159N limits assumed): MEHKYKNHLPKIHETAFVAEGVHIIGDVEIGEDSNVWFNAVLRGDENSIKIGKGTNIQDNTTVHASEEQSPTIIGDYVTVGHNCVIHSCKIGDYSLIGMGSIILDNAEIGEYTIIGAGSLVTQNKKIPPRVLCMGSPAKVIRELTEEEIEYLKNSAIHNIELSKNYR

As to `Nc1ccc(S(N)(=O)=O)cc1` [sulfanilamide], in experiment [1], the “% inhibition at 1 mM” value was “Inhibition of γ‐CaCAmut by three common diagnostic CA inhibitors (sulfanilamide, azide, and EDTA)”.
Consider `CC(=O)Oc1ccc([N+](=O)[O-])cc1` [p-nitrophenyl acetate], for which, in experiment [2], the Km amounted to 960 ± 50 µM.

For orientation: Km means the substrate concentration at which the rate is half of its maximum.
